Reference: US12433900B2, “Intravitreal corticosteroid extended release implant and methods of use” (Eyedea Bio, LLC, priority 2021, dated 2025)

Test: Calculated Octanol Solubility Index (OSI) and Topological Polar Surface Area (TPSA) of the API
Conditions: calculated using the log P and maximal aqueous solubility

| OSI (Octanol Solubility Index) | Structure (SMILES) |
| --- | --- |
| 3.85 | C[C@@H]1C[C@H]2[C@@H]3CCC4=CC(=O)C=C[C@]4(C)[C@@]3(F)[C@@H](O)C[C@]2(C)[C@@]1(O)C(=O)CO [dexamethasone free base, 9α-fluoro-11β,17α,21-trihydroxy-16α-methylpregna-1,4-diene-3,20-dione] |
| 3.71 | C[C@@H]1C[C@H]2[C@@H]3CCC4=CC(=O)C=C[C@]4(C)[C@@]3(F)[C@@H](O)C[C@]2(C)[C@@]1(O)C(=O)COP(=O)(O)O [dexamethasone phosphate] |
| 3.48 | CC1(C)O[C@@H]2C[C@H]3[C@@H]4C[C@H](F)C5=CC(=O)C=C[C@]5(C)[C@@]4(F)[C@@H](O)C[C@]3(C)[C@]2(C(=O)CO)O1 [fluocinolone acetonide, 6α,9α-difluoro-11β,16α,17α,21-tetrahydroxypregna-1,4-diene-3,20-dione cyclic 16α,17α-acetal with acetone] |
